Measurements taken from patent publication US9861575B2, “Vitamin-containing nutrition infusion for administration through peripheral vein” (AJINOMOTO CO., INC., priority 2010, dated 2018).
Where a name gives a salt, the structure may show the parent alone.

Experiments:
[1] = Test Example 6: stability of respective vitamins on storage of infusion formulation of Example 11; type: physicochemical; details: in infusion formulation of Example 11, percentage based on the mixed amount; for residual rate (content), storage for 1 month / residual rate (content), storage for 3 months: 40° C. and 75% RH
Text: In addition, the content is expressed as a percentage based on the mixed amount. From the results, it is considered that the infusion formulation of the present invention remains stable even when stored for a long time.

[2] = Test Example 7: stability of mixed solution of Example 11; type: physicochemical; details: mixed solution of Example 11, room temperature, light-shielded; value immediately after mixing = 100%
Procedure: Regarding the infusion formulations prepared in Example 11, the partition portions were opened to thoroughly mix the sugar solution with the amino acid solution at room temperature, and then the mixed solution was sampled after 0 hours, 24 hours, and 48 hours to measure the content of the respective vitamins and N-acetyl cysteine. In addition, the mixed solution was stored in a light-shielded environment. The value measured immediately after mixing was taken as 100%, and the content at each point in time of measurement is expressed as a percentage. All of the respective components remained stable until 48 hours elapsed after mixing.

Compound | residual rate (content), storage for 1 month [1] | residual rate (content), storage for 3 months [1] | residual rate (content) immediately after sterilization [1] | content after 24 hours [2] | content after 48 hours [2]
Nc1nc2ncc(CNc3ccc(C(=O)N[C@@H](CCC(=O)O)C(=O)O)cc3)nc2c(=O)[nH]1 [Folic acid] | 96.5% | 89.7% | 95.8% | 96.4% | 96.2%
Cc1ncc(C[n+]2csc(CCO)c2C)c(N)n1 [Vitamin B1, Thiamine hydrochloride] | 90.6% | 83.5% | 93.3% | 99.4% | 94.1%
Cc1ncc(CO)c(CO)c1O.Cl [Vitamin B6, Pyridoxine hydrochloride] | 96.7% | 97.3% | 97.1% | 100.6% | 99.9%
CC(=O)N[C@@H](CS)C(=O)O [N-acetyl cysteine] |  |  |  | 98.3% | 97.5%
Cc1cc2nc3c(=O)[nH]c(=O)nc-3n(C[C@H](O)[C@H](O)[C@H](O)COP(=O)([O-])O)c2cc1C.[Na+] [Vitamin B2, Riboflavin sodium phosphate] | 94.3% | 92.6% | 94.7% |  | 99.8%
Cyanocobalamin [Vitamin B12] | 89.7% | 91.2% | 86.3% | 96.0% | 97.9%
NC(=O)c1cccnc1 [Nicotinamide] | 101.5% | 99.6% | 100.9% | 96.6% | 97.2%
O=C1O[C@H]([C@@H](O)CO)C(O)=C1O [Vitamin C, Ascorbic acid] | 97.6% | 99.7% | 96.1% | 97.1% | 92.2%
O=C(O)CCCC[C@@H]1SC[C@@H]2NC(=O)N[C@@H]21 [Biotin] |  | 91.4% | 93.6% | 97.9% | 96.7%
CC(C)(CO)[C@@H](O)C(=O)NCCCO [Panthenol] | 97.6% | 96.8% | 97.8% | 100.0% | 100.2%
